# Source: paper PMC10296036, “Inhibitory Potential of Synthetic Amino Acid Derivatives against Digestive Enzymes as Promising Hypoglycemic and Anti-Obesity Agents” (Biomolecules, 2023)
# Where “and” joins values, the source holds several entries; their conditions need not be identical. Equal values may be shown once. Marks after values point to notes of the source that are not given here.
# Tests used:
# [1] = biological target: T1, porcine pancreatic lipase (Sus scrofa, UniProt P00591); set-up: method as in PMID 12771334; details: 100 mg/mL; cited from earlier work
# T1 construct: purchased Sigma-Aldrich
# T1 sequence (P00591 1-450): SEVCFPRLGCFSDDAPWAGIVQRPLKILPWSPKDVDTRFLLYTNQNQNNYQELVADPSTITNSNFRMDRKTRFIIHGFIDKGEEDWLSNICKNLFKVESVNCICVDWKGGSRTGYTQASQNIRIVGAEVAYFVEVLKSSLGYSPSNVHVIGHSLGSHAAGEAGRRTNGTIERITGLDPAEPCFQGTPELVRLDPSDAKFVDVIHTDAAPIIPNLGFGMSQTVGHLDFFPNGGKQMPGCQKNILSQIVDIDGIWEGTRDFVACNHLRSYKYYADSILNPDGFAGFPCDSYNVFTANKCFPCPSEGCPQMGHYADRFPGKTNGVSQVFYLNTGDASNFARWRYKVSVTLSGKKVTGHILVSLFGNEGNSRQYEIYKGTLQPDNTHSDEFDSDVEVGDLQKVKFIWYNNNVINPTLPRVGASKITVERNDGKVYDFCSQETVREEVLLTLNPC
# [2] = biological target: T2, porcine pancreatic α-amylase (Sus scrofa, UniProt P00690); assay: Kinetic parameters and Lineweaver-Burk analysis, pancreatic α-amylase; assay type: biochemical; details: for Inhibition mechanism on pancreatic α-amylase: from Km, Vmax and Lineweaver-Burk plots; for Vmax (pancreatic α-amylase in presence of inhibitor) / Slope (Lineweaver-Burk, pancreatic α-amylase): inhibitor concentration: acarbose 387, PPC80 730, PPC82 795, PPC84 870, PPC89 675, PPC101 532 µM; for Vmax (pancreatic α-amylase in presence of inhibitor): no inhibitor Vmax 100.70 ± 0.34; for Slope (Lineweaver-Burk, pancreatic α-amylase): no inhibitor slope 0.59
# T2 construct: purchased Sigma-Aldrich
# T2 sequence (P00690 16-511): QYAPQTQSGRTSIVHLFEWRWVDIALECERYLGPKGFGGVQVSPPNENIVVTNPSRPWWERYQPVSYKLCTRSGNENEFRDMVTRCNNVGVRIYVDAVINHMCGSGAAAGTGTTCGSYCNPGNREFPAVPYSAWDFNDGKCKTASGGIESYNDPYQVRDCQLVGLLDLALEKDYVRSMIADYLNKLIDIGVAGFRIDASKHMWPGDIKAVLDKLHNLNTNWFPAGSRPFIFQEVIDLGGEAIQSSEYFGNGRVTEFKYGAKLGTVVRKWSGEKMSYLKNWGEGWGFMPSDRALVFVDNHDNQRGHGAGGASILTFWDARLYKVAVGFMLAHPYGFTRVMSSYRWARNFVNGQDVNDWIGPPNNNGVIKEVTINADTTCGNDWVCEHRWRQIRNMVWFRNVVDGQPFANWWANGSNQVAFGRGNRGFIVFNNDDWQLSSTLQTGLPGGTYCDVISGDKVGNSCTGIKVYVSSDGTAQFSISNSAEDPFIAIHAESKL
# Method: (§1) The pancreatic α-amylase inhibition assay was carried out according to Freitas et al. with some modifications. The porcine pancreatic α-amylase (1 mg/mL) was incubated in 50 mM Tris-HCl buffer (pH 7.0) containing 10 mM CaCl2 and 1% starch. […] Afterward, microplates were pre-incubated for 10 min in a water bath at 37 °C. […] The reaction was stopped using an ice bath. All reactions were carried out in triplicate.
# (§2) Kinetic parameters were determined using the same experimental conditions as described above for each enzyme. […] The enzyme concentrations were maintained as described above. […] The absorbance values were converted into product concentration (µmol/L) using standard curves of glucose (α-amylase) and p-nitrophenol (pancreatic lipase and α-glucosidase). The value of the initial velocity (v0) of enzymatic reactions was estimated to create the “v0 versus substrate concentration” graph. Kinetic constants (Km and Vmax) and slope were calculated, and the inhibition model was verified using Lineweaver–Burk plots.
# [3] = biological target: T1, porcine pancreatic lipase; assay: Kinetic parameters and Lineweaver-Burk analysis, pancreatic lipase; assay type: biochemical; details: for Inhibition mechanism on pancreatic lipase: from Km, Vmax and Lineweaver-Burk plots; for Vmax (pancreatic lipase in presence of inhibitor) / Slope (Lineweaver-Burk, pancreatic lipase): inhibitor concentration: orlistat 101 µM, PPC80 146 µM, PPC82 159 µM, PPC84 174 µM; for Vmax (pancreatic lipase in presence of inhibitor): no inhibitor Vmax 68.65 ± 0.41; for Slope (Lineweaver-Burk, pancreatic lipase): no inhibitor slope 2.77
# Method: (§3) The pancreatic lipase inhibition assay was performed according to Santos et al. with some modifications. The porcine pancreatic lipase (10 g/L) was incubated in 50 mmol/L Tris-HCl buffer (pH 8.0) containing 10 mM CaCl2 and 25 mM NaCl. The p-nitrophenol palmitate substrate (8 mM) was dissolved in 0.5% w/v Triton-X 100. […] All reactions were carried out in triplicate.
# as §2
# [4] = biological target: T1, porcine pancreatic lipase; assay: Pancreatic lipase inhibition assay (I% and IC50); assay type: biochemical; details: for IC50: mean ± S.E.M., n = 3, substrate p-nitrophenol palmitate, 37 °C, pH 8.0; for Inhibitory action on pancreatic lipase (in words): tested concentration range
# Method: as §3
# [5] = biological target: T2, porcine pancreatic α-amylase; assay: Pancreatic α-amylase inhibition assay (I% and IC50); assay type: biochemical; details: for IC50: mean ± S.E.M., n = 3, starch substrate, 37 °C, pH 7.0
# Method: as §1
# α-glucosidase [6] = assay: α-Glucosidase inhibition assay (I% and IC50); details: for Inhibitory action against α-glucosidase (in words): tested concentration range
# α-glucosidase [7] = assay: Kinetic parameters and Lineweaver-Burk analysis, α-glucosidase; assay type: biochemical; details: for Inhibition mechanism on α-glucosidase: from Km, Vmax and Lineweaver-Burk plots; for Vmax (α-glucosidase in presence of inhibitor) / Slope (Lineweaver-Burk, α-glucosidase): inhibitor concentration: acarbose 387, PPC84 870, PPC89 675, PPC101 532 µM; for Vmax (α-glucosidase in presence of inhibitor): no inhibitor Vmax 62.42 ± 1.14; for Slope (Lineweaver-Burk, α-glucosidase): no inhibitor slope 2.93
# Method: [20] with some modifications. […] The reaction was stopped in an ice bath. All enzyme reactions were carried out in triplicate. […] Kinetic parameters were determined using the same experimental conditions as described above for each enzyme. […] The enzyme concentrations were maintained as described above. […] The absorbance values were converted into product concentration (μmol/L) using standard curves of glucose (α-amylase) and p-nitrophenol (pancreatic lipase and α-glucosidase). The value of the initial velocity (v0) of enzymatic reactions was estimated to create the “v0 versus substrate concentration” graph. Kinetic constants (Km and Vmax) and slope were calculated, and the inhibition model was verified using Lineweaver-Burk plots.
Compound,Inhibition mechanism on pancreatic α-amylase [2],Vmax (pancreatic α-amylase in presence of inhibitor) [2],"Slope (Lineweaver-Burk, pancreatic α-amylase) [2]",Inhibition mechanism on pancreatic lipase [3],Vmax (pancreatic lipase in presence of inhibitor) [3],"Slope (Lineweaver-Burk, pancreatic lipase) [3]",IC50 [4],IC50 [5],Inhibition mechanism on α-glucosidase (α-glucosidase [7]),Vmax (α-glucosidase in presence of inhibitor) (α-glucosidase [7]),"Slope (Lineweaver-Burk, α-glucosidase) (α-glucosidase [7])",other results
Polylysine,,,,,,,,,,,,Inhibition of porcine pancreatic lipase activity [1]: 80%
CC[C@H](C)[C@H](NC(=O)OC(C)(C)C)C(=O)NCCCN [PPC84],non-competitive or mixed inhibition mechanism,94.35 ± 0.51 µM/min,0.80 min⁻¹,mixed or non-competitive inhibition mechanism,62.76 ± 0.3 µM/min and 62.76 ± 0.35 µM/min,3.19 min⁻¹,1020 ± 20.3 µM,493 ± 11 µM,competitive inhibitors,62.90 ± 0.60 µM/min and 62.90 ± 0.60 ^a µM/min,4.29 min⁻¹,"inhibition at 1392 µM ([4]; 1392 µM, read-out: Inhibitory effect on pancreatic lipase activity): ~62%; inhibition at 870 µM ([5]; 870 µM): ~74%; Inhibition of α-glucosidase (α-glucosidase [6]; 435 µM): ~66%"
"C[C@H]1O[C@H](O[C@H]2[C@H](O)[C@@H](O)[C@@H](O[C@H]3[C@H](O)[C@@H](O)C(O)O[C@@H]3CO)O[C@@H]2CO)[C@H](O)[C@@H](O)[C@@H]1N[C@H]1C=C(CO)[C@@H](O)[C@H](O)[C@H]1O (some centres unmarked) [Acarbose, acarbose, reference compound]",,100.30 ± 0.89 ^a µM/min,0.66 min⁻¹,,,,,,,,,inhibition at 620 µM ([5]; 620 µM): ~86%
CCCCCCCCNC(=O)[C@@H](NC(=O)OC(C)(C)C)[C@@H](C)CC [PPC80],non-competitive or mixed inhibition mechanism,91.75 ± 0.48 µM/min,0.89 min⁻¹,competitive mechanism,68.82 ± 0.57 µM/min and 68.82 ± 0.57 ^a µM/min,4.65 min⁻¹,475 ± 8.25 µM,276 ± 5.21 µM,,,,"inhibition at 584 µM ([4]; 584 µM, read-out: Inhibitory effect on pancreatic lipase activity): ~65%; inhibition at 730 µM ([5]; 730 µM): ~93%; Inhibitory action against α-glucosidase (in words) (α-glucosidase [6]): did not show inhibitory action"
CCCCCCCCCCNC(=O)[C@@H](NC(=O)OC(C)(C)C)[C@@H](C)CC [PPC89],competitive-type inhibition mechanism,99.73 ± 1.77 ^a µM/min,0.76 min⁻¹,,,,,171 ± 13.6 µM,competitive inhibitors,62.30 ± 1.33 µM/min and 62.30 ± 1.33 ^a µM/min,4.11 min⁻¹,"Inhibitory action on pancreatic lipase (in words) [4]: did not show inhibitory action; Inhibitory effect on pancreatic α-amylase (in words) ([5]; 405 µM, compared with acarbose 620 µM): same inhibitory effect as acarbose; inhibition at 675 µM ([5]; 675 µM): ~90%; Inhibition of α-glucosidase (α-glucosidase [6]; 674 µM): ~78%"
CCCCCCCCCCCCNCCCCNC(=O)[C@@H](NC(=O)OC(C)(C)C)[C@@H](C)CC [PPC101],competitive-type inhibition mechanism,100.00 ± 1.55 ^a µM/min,0.70 min⁻¹,,,,,162 ± 1.73 µM,competitive inhibitors,63.09 ± 1.45 µM/min and 63.09 ± 1.45 ^a µM/min,4.94 min⁻¹,"Inhibitory action on pancreatic lipase (in words) [4]: did not show inhibitory action; inhibition at 532 µM ([5]; 532 µM): ~86%; Inhibition of α-glucosidase (α-glucosidase [6]; 67 µM): ~64%; IC50 (α-glucosidase [6]; read-out: IC50 α-Glucosidase, mean ± S.E.M., n = 3, substrate p-nitrophenyl-α-D-glucopyranoside, 37 °C, pH 7.0): 51 ± 1.73 µM"
CCCCCCNC(=O)[C@@H](NC(=O)OC(C)(C)C)[C@@H](C)CC [PPC82],competitive-type inhibition mechanism,99.70 ± 1.20 ^a µM/min,0.72 min⁻¹,competitive mechanism,69.13 ± 0.57 µM/min and 69.13 ± 0.57 ^a µM/min,5.79 min⁻¹,167 ± 6.25 µM,519 ± 20 µM,,,,"inhibition at 477 µM ([4]; 477 µM, read-out: Inhibitory effect on pancreatic lipase activity): ~86%; inhibition at 1590 µM ([5]; 1590 µM): ~94%; Inhibitory action against α-glucosidase (in words) (α-glucosidase [6]): did not show inhibitory action"
"CCCCCCCCCCC[C@@H](C[C@@H]1OC(=O)[C@H]1CCCCCC)OC(=O)[C@H](CC(C)C)NC=O [Orlistat, orlistat, reference compound]",,,,,68.34 ± 0.40 µM/min and 68.34 ± 0.40 ^a µM/min,4.10 min⁻¹,,,,,,"inhibition at 807 µM ([4]; 807 µM, read-out: Inhibitory effect on pancreatic lipase activity): 60%"
